Assay results: ChEMBL document CHEMBL1201862, “PubChem BioAssay data set” (2004)
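Values below derive from 48-hour exposures of cells grown in 96-well plates, with endpoints linearly interpolated between the two concentrations bracketing the appropriate inhibition level. The concentration for 50% growth inhibition is given as GI50.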 Calls of active or inactive are those of the source. No stated cut-off is given here; in the data, active = GI50 up to about 1.1 µM and inactive = higher.

Experiments:
Test in all cases: inhibition of tumour cell growth, NCI panel, 48 h
U-251 = system: U-251
SNB-19 = system: SNB-19
K562 = system: K562
BT-549 = system: BT-549
MOLT-4 = system: MOLT-4
CCRF-CEM = system: CCRF-CEM
SK-MEL-5 = system: SK-MEL-5
EKVX = system: EKVX
PC-3 = system: PC-3
SN12C = system: SN12C
TK-10 = system: TK-10
NCI/ADR-RES = system: NCI/ADR-RES
HCC 2998 = system: HCC 2998
SW-620 = system: SW-620
LOX IMVI = system: LOX IMVI
MCF7 = system: MCF7
NCI-H23 = system: NCI-H23
UACC-62 = system: UACC-62
ACHN = system: ACHN
SK-OV-3 = system: SK-OV-3
A498 = system: A498
IGROV-1 = system: IGROV-1
SK-MEL-28 = system: SK-MEL-28
SNB-75 = system: SNB-75
SF-268 = system: SF-268
NCI-H460 = system: NCI-H460
Hs-578T = system: Hs-578T
UO-31 = system: UO-31
RXF 393 = system: RXF 393
OVCAR-8 = system: OVCAR-8
OVCAR-5 = system: OVCAR-5
HT-29 = system: HT-29
HCT-15 = system: HCT-15
OVCAR-3 = system: OVCAR-3
CAKI-1 = system: CAKI-1
HOP-62 = system: HOP-62
MDA-MB-231 = system: MDA-MB-231
SF-295 = system: SF-295
NCI-H522 = system: NCI-H522
M14 = system: M14
Malme-3M = system: Malme-3M
SK-MEL-2 = system: SK-MEL-2
RPMI-8226 = system: RPMI-8226
A549 = system: A549
UACC-257 = system: UACC-257
COLO 205 = system: COLO 205
HL-60 = system: HL-60
SR = system: SR
KM12 = system: KM12
NCI-H226 = system: NCI-H226
OVCAR-4 = system: OVCAR-4
HCT-116 = system: HCT-116
MDA-MB-435 = system: MDA-MB-435
DU-145 = system: DU-145
786-0 = system: 786-0
SF-539 = system: SF-539
HOP-92 = system: HOP-92
T47D = system: T47D
MDA-N = system: MDA-N

Clc1ccc2sc(-n3ccc4ccccc43)nc2c1
GI50 (U-251): > 100 µM (inactive)
GI50 (SNB-19): 24.2 µM (inactive)
GI50 (K562): 97.1 µM (inactive)
GI50 (BT-549): 84.3 µM (inactive)
GI50 (MOLT-4): 55.7 µM (inactive)
GI50 (CCRF-CEM): > 100 µM (inactive)
GI50 (SK-MEL-5): > 100 µM (inactive)
GI50 (EKVX): > 100 µM (inactive)
GI50 (PC-3): 67.6 µM (inactive)
GI50 (SN12C): > 100 µM (inactive)
GI50 (TK-10): > 100 µM (inactive)
GI50 (NCI/ADR-RES): > 100 µM (inactive)
GI50 (HCC 2998): > 100 µM (inactive)
GI50 (SW-620): > 100 µM (inactive)
GI50 (LOX IMVI): > 100 µM (inactive)
GI50 (MCF7): 26.1 µM (inactive)
GI50 (NCI-H23): 45.7 µM (inactive)
GI50 (UACC-62): > 100 µM (inactive)
GI50 (ACHN): > 100 µM (inactive)
GI50 (SK-OV-3): > 100 µM (inactive)
GI50 (A498): > 100 µM (inactive)
GI50 (IGROV-1): > 100 µM (inactive)
GI50 (SK-MEL-28): > 100 µM (inactive)
GI50 (SNB-75): 49.3 µM (inactive)
GI50 (SF-268): > 100 µM (inactive)
GI50 (NCI-H460): > 100 µM (inactive)
GI50 (Hs-578T): 72.6 µM (inactive)
GI50 (UO-31): > 100 µM (inactive)
GI50 (RXF 393): 13.3 µM (inactive)
GI50 (OVCAR-8): > 100 µM (inactive)
GI50 (OVCAR-5): > 100 µM (inactive)
GI50 (HT-29): 75.9 µM (inactive)
GI50 (HCT-15): > 100 µM

N#Cc1c(N2CCOCC2)[nH]c(=O)c(C(c2c(Cl)cccc2Cl)c2c(O)c(C#N)c(N3CCOCC3)[nH]c2=O)c1O
GI50 (OVCAR-3): 16.4 µM (inactive)
GI50 (CAKI-1): 18.1 µM (inactive)
GI50 (HOP-62): 22.1 µM (inactive)
GI50 (U-251): 16.7 µM (inactive)
GI50 (MDA-MB-231): 16.6 µM (inactive)
GI50 (SF-295): 30.5 µM (inactive)
GI50 (SNB-19): 16.1 µM (inactive)
GI50 (NCI-H522): 13.4 µM (inactive)
GI50 (K562): 11.2 µM (inactive)
GI50 (M14): 17.9 µM (inactive)
GI50 (BT-549): 17.6 µM (inactive)
GI50 (MOLT-4): 16.1 µM (inactive)
GI50 (CCRF-CEM): 15.1 µM (inactive)
GI50 (SK-MEL-5): 16.6 µM (inactive)
GI50 (Malme-3M): 12.9 µM (inactive)
GI50 (EKVX): 18.3 µM (inactive)
GI50 (SK-MEL-2): 17.6 µM (inactive)
GI50 (PC-3): 17.8 µM (inactive)
GI50 (SN12C): 20.1 µM (inactive)
GI50 (RPMI-8226): 21.4 µM (inactive)
GI50 (A549): 77.6 µM (inactive)
GI50 (TK-10): 17.5 µM (inactive)
GI50 (NCI/ADR-RES): 27.4 µM (inactive)
GI50 (HCC 2998): 12.5 µM (inactive)
GI50 (SW-620): 17.7 µM (inactive)
GI50 (UACC-257): 17.8 µM (inactive)
GI50 (COLO 205): 13.8 µM (inactive)
GI50 (HL-60): 12.9 µM (inactive)
GI50 (LOX IMVI): 13 µM (inactive)
GI50 (MCF7): 16.7 µM (inactive)
GI50 (SR): 5.89 µM (inactive)
GI50 (NCI-H23): 16.2 µM (inactive)
GI50 (KM12): 16.1 µM (inactive)
GI50 (NCI-H226): 23 µM (inactive)
GI50 (OVCAR-4): 17.7 µM (inactive)
GI50 (HCT-116): 28.3 µM (inactive)
GI50 (UACC-62): 16.6 µM (inactive)
GI50 (ACHN): 16.1 µM (inactive)
GI50 (MDA-MB-435): 16.6 µM (inactive)
GI50 (A498): 34.5 µM (inactive)
GI50 (IGROV-1): 18.1 µM (inactive)
GI50 (SK-MEL-28): 17.9 µM (inactive)
GI50 (SF-268): 19.5 µM (inactive)
GI50 (NCI-H460): > 100 µM (inactive)
GI50 (Hs-578T): 19.5 µM (inactive)
GI50 (UO-31): 18.2 µM (inactive)
GI50 (RXF 393): 14.1 µM (inactive)
GI50 (OVCAR-8): 18.6 µM (inactive)
GI50 (DU-145): 23.9 µM (inactive)
GI50 (OVCAR-5): 14 µM (inactive)
GI50 (786-0): 32 µM (inactive)
GI50 (HT-29): 15.4 µM (inactive)
GI50 (SF-539): 19.1 µM (inactive)
GI50 (HOP-92): 18 µM (inactive)
GI50 (HCT-15): 15 µM

COc1cc(S(=O)(=O)Nc2nc(-c3ccc(N4C(=O)C(CC(=O)O)SC4c4cccs4)cc3)cs2)ccc1Cl (stereo not drawn)
GI50 (OVCAR-3): 36.2 µM (inactive)
GI50 (CAKI-1): 55.5 µM (inactive)
GI50 (HOP-62): 54 µM (inactive)
GI50 (U-251): 42.6 µM (inactive)
GI50 (MDA-MB-231): 81.1 µM (inactive)
GI50 (SF-295): > 100 µM (inactive)
GI50 (SNB-19): 79.6 µM (inactive)
GI50 (NCI-H522): 17.8 µM (inactive)
GI50 (K562): 39 µM (inactive)
GI50 (T47D): 25.9 µM (inactive)
GI50 (M14): > 100 µM (inactive)
GI50 (MOLT-4): 29 µM (inactive)
GI50 (SK-MEL-5): > 100 µM (inactive)
GI50 (Malme-3M): 22.6 µM (inactive)
GI50 (SK-MEL-2): 27.8 µM (inactive)
GI50 (PC-3): 49.1 µM (inactive)
GI50 (SN12C): 30.3 µM (inactive)
GI50 (A549): > 100 µM (inactive)
GI50 (TK-10): 79.4 µM (inactive)
GI50 (NCI/ADR-RES): 29.3 µM (inactive)
GI50 (HCC 2998): 27 µM (inactive)
GI50 (SW-620): 28.9 µM (inactive)
GI50 (UACC-257): 41.9 µM (inactive)
GI50 (COLO 205): > 100 µM (inactive)
GI50 (HL-60): 31 µM (inactive)
GI50 (LOX IMVI): 20.3 µM (inactive)
GI50 (MCF7): 25 µM (inactive)
GI50 (SR): 44.9 µM (inactive)
GI50 (NCI-H23): 22.6 µM (inactive)
GI50 (KM12): 36.9 µM (inactive)
GI50 (NCI-H226): > 100 µM (inactive)
GI50 (OVCAR-4): 26.7 µM (inactive)
GI50 (HCT-116): 29.3 µM (inactive)
GI50 (UACC-62): 23.4 µM (inactive)
GI50 (ACHN): > 100 µM (inactive)
GI50 (MDA-MB-435): 40 µM (inactive)
GI50 (SK-OV-3): > 100 µM (inactive)
GI50 (A498): > 100 µM (inactive)
GI50 (IGROV-1): 27.1 µM (inactive)
GI50 (SK-MEL-28): 70.1 µM (inactive)
GI50 (SNB-75): 17.2 µM (inactive)
GI50 (SF-268): 21.9 µM (inactive)
GI50 (NCI-H460): > 100 µM (inactive)
GI50 (Hs-578T): 46 µM (inactive)
GI50 (UO-31): 19.9 µM (inactive)
GI50 (RXF 393): 15.7 µM (inactive)
GI50 (OVCAR-8): 39 µM (inactive)
GI50 (DU-145): 43.5 µM (inactive)
GI50 (OVCAR-5): > 100 µM (inactive)
GI50 (786-0): 41.8 µM (inactive)
GI50 (HT-29): > 100 µM (inactive)
GI50 (SF-539): 27.9 µM (inactive)
GI50 (MDA-N): 43.3 µM (inactive)
GI50 (HOP-92): 30.9 µM (inactive)
GI50 (HCT-15): 19.9 µM

COc1ccccc1C(=O)c1ccc2ccccc2c1
GI50 (OVCAR-3): 9.4 µM (inactive)
GI50 (CAKI-1): 13.8 µM (inactive)
GI50 (HOP-62): 33.7 µM (inactive)
GI50 (U-251): 13.3 µM (inactive)
GI50 (MDA-MB-231): 35.8 µM (inactive)
GI50 (SF-295): 22 µM (inactive)
GI50 (SNB-19): 19.5 µM (inactive)
GI50 (NCI-H522): 5.85 µM (inactive)
GI50 (K562): 4 µM (inactive)
GI50 (M14): 11.9 µM (inactive)
GI50 (BT-549): 16.1 µM (inactive)
GI50 (MOLT-4): 4.34 µM (inactive)
GI50 (CCRF-CEM): 20.2 µM (inactive)
GI50 (SK-MEL-5): 6.19 µM (inactive)
GI50 (Malme-3M): 10.8 µM (inactive)
GI50 (EKVX): 16.5 µM (inactive)
GI50 (SK-MEL-2): 14.1 µM (inactive)
GI50 (PC-3): 23.8 µM (inactive)
GI50 (SN12C): 28.1 µM (inactive)
GI50 (RPMI-8226): 16.2 µM (inactive)
GI50 (A549): 17.9 µM (inactive)
GI50 (TK-10): 17.8 µM (inactive)
GI50 (NCI/ADR-RES): 41.3 µM (inactive)
GI50 (HCC 2998): 51.8 µM (inactive)
GI50 (SW-620): 8.3 µM (inactive)
GI50 (UACC-257): 30.6 µM (inactive)
GI50 (COLO 205): 20.4 µM (inactive)
GI50 (HL-60): 3.21 µM (inactive)
GI50 (LOX IMVI): 12.6 µM (inactive)
GI50 (MCF7): 8.15 µM (inactive)
GI50 (SR): 3.24 µM (inactive)
GI50 (NCI-H23): 40 µM (inactive)
GI50 (KM12): 4.34 µM (inactive)
GI50 (NCI-H226): 31.5 µM (inactive)
GI50 (OVCAR-4): 36 µM (inactive)
GI50 (HCT-116): 39.7 µM (inactive)
GI50 (UACC-62): 7.48 µM (inactive)
GI50 (ACHN): 41.2 µM (inactive)
GI50 (MDA-MB-435): 3.47 µM (inactive)
GI50 (IGROV-1): 11.3 µM (inactive)
GI50 (SK-MEL-28): 39.3 µM (inactive)
GI50 (SNB-75): 38.2 µM (inactive)
GI50 (SF-268): 30.5 µM (inactive)
GI50 (NCI-H460): 15.2 µM (inactive)
GI50 (Hs-578T): 12.3 µM (inactive)
GI50 (UO-31): 20.6 µM (inactive)
GI50 (RXF 393): 22.5 µM (inactive)
GI50 (OVCAR-8): 26.4 µM (inactive)
GI50 (DU-145): 20.6 µM (inactive)
GI50 (OVCAR-5): 64.6 µM (inactive)
GI50 (786-0): 30.1 µM (inactive)
GI50 (HT-29): 16.7 µM (inactive)
GI50 (SF-539): 5.74 µM (inactive)
GI50 (HOP-92): 18.7 µM (inactive)
GI50 (HCT-15): 9.55 µM
